{
  "source": "ChEMBL document CHEMBL1141367",
  "about": "“Substituted 2-[(4-aminomethyl)phenoxy]-2-methylpropionic acid PPARalpha agonists. 1. Discovery of a novel series of potent HDLc raising agents” (J Med Chem, 2007)",
  "key": {"Mus musculus [1]": {"system": "Mus musculus", "assay": "Decrease in LDL cholesterol level in human Apo-A-I transgenic C57BL/6 mouse at 5 mg/kg, po", "format": "functional", "parameters": "scale not given: the % may be the effect or the level left"}, "Mus musculus [2]": {"system": "Mus musculus", "assay": "Increase in HDL cholesterol level in human Apo-A-I transgenic C57BL/6 mouse at 0.5 mg/kg, po", "format": "functional"}, "Mus musculus [3]": {"system": "Mus musculus", "assay": "Decrease in LDL cholesterol level in human Apo-A-I transgenic C57BL/6 mouse at 1 mg/kg, po", "format": "functional", "parameters": "scale not given: the % may be the effect or the level left"}, "[4]": {"assay": "Plasma clearance in Wistar rat at 2.7 mg/kg, iv", "format": "ADME, organism-based", "parameters": "dose 2.7 mg/kg, route intravenous"}, "[5]": {"biological_target": "T1, Peroxisome proliferator-activated receptor gamma (Homo sapiens, UniProt P37231)", "T1 sequence (P37231 whole entry)": "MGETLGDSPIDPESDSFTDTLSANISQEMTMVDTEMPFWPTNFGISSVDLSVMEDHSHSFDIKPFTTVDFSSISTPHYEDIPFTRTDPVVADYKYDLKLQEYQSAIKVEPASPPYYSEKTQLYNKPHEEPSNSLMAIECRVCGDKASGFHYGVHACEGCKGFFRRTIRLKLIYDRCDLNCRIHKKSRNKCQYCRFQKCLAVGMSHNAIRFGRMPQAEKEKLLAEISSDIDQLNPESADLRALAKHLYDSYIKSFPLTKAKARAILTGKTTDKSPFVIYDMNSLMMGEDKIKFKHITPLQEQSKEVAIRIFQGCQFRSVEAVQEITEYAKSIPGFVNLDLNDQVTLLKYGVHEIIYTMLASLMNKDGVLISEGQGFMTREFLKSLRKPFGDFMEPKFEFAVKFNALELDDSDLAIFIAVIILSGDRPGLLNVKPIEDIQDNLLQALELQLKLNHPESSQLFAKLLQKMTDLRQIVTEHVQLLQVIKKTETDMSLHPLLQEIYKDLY", "format": "functional, cell-based, CV-1", "description": "Agonist potency at PPARgamma in CV1 cells by cell based transient transfection assay"}, "[6]": {"assay": "Bioavailability in Beagle dog at 3 mg/kg, po", "format": "ADME, organism-based, Canis lupus familiaris", "conditions": "in vivo"}, "[7]": {"assay": "Volume of distribution in Wistar rat at 2.7 mg/kg, iv", "format": "ADME, organism-based", "parameters": "dose 2.7 mg/kg, route intravenous", "conditions": "in vivo, read-out: Vdss"}, "[8]": {"assay": "Bioavailability in Wistar rat at 3 mg/kg, po", "format": "ADME, organism-based", "conditions": "in vivo"}, "Mus musculus [9]": {"system": "Mus musculus", "assay": "Decrease in plasma TG level in human Apo-A-I transgenic C57BL/6 mouse at 0.5 mg/kg, po", "format": "functional", "parameters": "scale not given: the % may be the effect or the level left"}, "[10]": {"biological_target": "T2, Peroxisome proliferator-activated receptor gamma (Mus musculus, UniProt P37238)", "T2 sequence (P37238 whole entry)": "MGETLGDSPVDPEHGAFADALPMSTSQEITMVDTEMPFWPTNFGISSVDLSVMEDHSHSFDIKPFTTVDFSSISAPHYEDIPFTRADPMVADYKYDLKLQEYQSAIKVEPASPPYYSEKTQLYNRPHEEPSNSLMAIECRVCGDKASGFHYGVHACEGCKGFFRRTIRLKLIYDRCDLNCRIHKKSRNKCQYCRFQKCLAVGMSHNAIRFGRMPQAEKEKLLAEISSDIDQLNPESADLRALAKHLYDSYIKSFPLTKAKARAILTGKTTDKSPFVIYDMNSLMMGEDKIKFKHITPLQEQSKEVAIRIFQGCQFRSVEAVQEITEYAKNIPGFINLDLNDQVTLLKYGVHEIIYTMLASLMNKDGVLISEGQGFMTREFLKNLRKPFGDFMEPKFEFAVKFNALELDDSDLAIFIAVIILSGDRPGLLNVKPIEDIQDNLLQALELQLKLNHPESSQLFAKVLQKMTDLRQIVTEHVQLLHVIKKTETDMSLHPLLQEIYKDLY", "description": "Agonist potency at mouse PPARgamma"}, "[11]": {"assay": "Volume of distribution in Beagle dog at 2 mg/kg, iv", "format": "ADME, organism-based, Canis lupus familiaris", "parameters": "dose 2 mg/kg, route intravenous", "conditions": "in vivo, read-out: Vdss"}, "[12]": {"biological_target": "T3, Peroxisome proliferator-activated receptor alpha (Homo sapiens) (UniProt Q07869)", "T3 sequence (whole entry)": "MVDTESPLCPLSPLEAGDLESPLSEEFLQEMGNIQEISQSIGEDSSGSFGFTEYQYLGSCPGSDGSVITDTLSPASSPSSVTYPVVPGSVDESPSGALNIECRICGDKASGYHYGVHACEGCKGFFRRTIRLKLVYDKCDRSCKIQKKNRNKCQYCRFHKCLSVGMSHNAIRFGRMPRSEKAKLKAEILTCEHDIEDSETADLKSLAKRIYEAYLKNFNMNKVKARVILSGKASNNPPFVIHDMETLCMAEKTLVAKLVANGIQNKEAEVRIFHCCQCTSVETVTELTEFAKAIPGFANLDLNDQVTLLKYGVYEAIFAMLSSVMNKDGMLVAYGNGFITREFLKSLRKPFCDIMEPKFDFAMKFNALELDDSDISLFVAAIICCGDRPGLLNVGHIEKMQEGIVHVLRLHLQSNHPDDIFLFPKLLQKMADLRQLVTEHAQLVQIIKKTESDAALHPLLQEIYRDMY", "assay": "Agonist potency at PPARalpha expressed in CV1 cells relative to GW-590735", "format": "functional, cell-based", "conditions": "CV-1"}, "Mus musculus [13]": {"system": "Mus musculus", "assay": "Decrease in VLDL cholesterol in human Apo-A-I transgenic C57BL/6 mouse at 0.5 mg/kg, po", "format": "functional", "parameters": "scale not given: the % may be the effect or the level left"}, "Mus musculus [14]": {"system": "Mus musculus", "assay": "Decrease in plasma TG level in human Apo-A-I transgenic C57BL/6 mouse at 5 mg/kg, po", "format": "functional", "parameters": "scale not given: the % may be the effect or the level left"}, "Mus musculus [15]": {"system": "Mus musculus", "assay": "Decrease in VLDL cholesterol in human Apo-A-I transgenic C57BL/6 mouse at 1 mg/kg, po", "format": "functional", "parameters": "scale not given: the % may be the effect or the level left"}, "[16]": {"biological_target": "T4, Peroxisome proliferator-activated receptor alpha (Mus musculus, UniProt P23204)", "T4 sequence (P23204 whole entry)": "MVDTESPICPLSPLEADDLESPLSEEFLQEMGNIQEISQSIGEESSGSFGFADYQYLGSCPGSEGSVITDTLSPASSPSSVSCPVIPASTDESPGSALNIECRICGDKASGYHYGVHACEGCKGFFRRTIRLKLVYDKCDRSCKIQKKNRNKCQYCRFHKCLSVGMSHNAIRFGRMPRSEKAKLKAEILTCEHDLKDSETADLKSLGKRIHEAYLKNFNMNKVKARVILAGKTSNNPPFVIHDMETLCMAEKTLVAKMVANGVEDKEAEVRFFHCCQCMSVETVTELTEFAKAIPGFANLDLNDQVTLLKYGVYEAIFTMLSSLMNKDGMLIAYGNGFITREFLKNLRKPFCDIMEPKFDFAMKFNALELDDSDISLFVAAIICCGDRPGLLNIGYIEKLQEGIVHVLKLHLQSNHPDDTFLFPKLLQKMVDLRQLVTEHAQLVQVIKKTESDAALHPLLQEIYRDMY", "description": "Agonist potency at mouse PPARalpha"}, "Mus musculus [17]": {"system": "Mus musculus", "assay": "Increase in HDL cholesterol level in human Apo-A-I transgenic C57BL/6 mouse at 5 mg/kg, po", "format": "functional"}, "[18]": {"assay": "Half life in Beagle dog plasma at 2 mg/kg, iv", "format": "ADME, organism-based, Canis lupus familiaris", "parameters": "dose 2 mg/kg, route intravenous"}, "[19]": {"assay": "Plasma concentration in Wistar rat at 3 mg/kg, po after 1.5 hrs", "format": "ADME, organism-based", "parameters": "dose 3 mg/kg, route oral"}, "Mus musculus [20]": {"system": "Mus musculus", "assay": "Decrease in plasma TG level in human Apo-A-I transgenic C57BL/6 mouse at 1 mg/kg, po", "format": "functional", "parameters": "scale not given: the % may be the effect or the level left"}, "Mus musculus [21]": {"system": "Mus musculus", "assay": "Decrease in VLDL cholesterol in human Apo-A-I transgenic C57BL/6 mouse at 5 mg/kg, po", "format": "functional", "parameters": "scale not given: the % may be the effect or the level left"}, "Mus musculus [22]": {"system": "Mus musculus", "assay": "Increase in HDL cholesterol level in human Apo-A-I transgenic C57BL/6 mouse at 1 mg/kg, po", "format": "functional"}},
  "data": [
    {"compound": "Cc1nc(-c2ccc(C(F)(F)F)cc2)sc1C(=O)NCc1ccc(OC(C)(C)C(=O)O)cc1", "note": "[GW590735]", "values": [
      {"measurement": "Activity", "setting": "Mus musculus [1]", "value": 69, "unit": "%"},
      {"measurement": "Activity", "setting": "Mus musculus [2]", "value": 43, "unit": "%"},
      {"measurement": "Activity", "setting": "Mus musculus [3]", "value": 65, "unit": "%"},
      {"measurement": "clearance", "setting": "[4]", "value": 5, "unit": "mL/min/kg"},
      {"measurement": "EC50", "setting": "[5]", "value": "> 10", "unit": "µM"},
      {"measurement": "bioavailability", "setting": "[6]", "value": 85, "unit": "%"},
      {"measurement": "Vd", "setting": "[7]", "value": 1, "unit": "L/kg"},
      {"measurement": "bioavailability", "setting": "[8]", "value": 47, "unit": "%"},
      {"measurement": "Activity", "setting": "Mus musculus [9]", "value": 37, "unit": "%"},
      {"measurement": "EC50", "setting": "[10]", "value": "> 10", "unit": "µM"},
      {"measurement": "Vd", "setting": "[11]", "value": 2.8, "unit": "L/kg"},
      {"measurement": "Activity", "setting": "[12]", "value": 95, "unit": "%"},
      {"measurement": "Activity", "setting": "Mus musculus [13]", "value": 48, "unit": "%"},
      {"measurement": "Activity", "setting": "Mus musculus [14]", "value": 65, "unit": "%"},
      {"measurement": "Activity", "setting": "Mus musculus [15]", "value": 63, "unit": "%"},
      {"measurement": "EC50", "setting": "[16]", "value": 0.015, "unit": "µM"},
      {"measurement": "Activity", "setting": "Mus musculus [17]", "value": 86, "unit": "%"},
      {"measurement": "half-life", "setting": "[18]", "value": 2.6, "unit": "h"},
      {"measurement": "concentration at 1.5 h", "setting": "[19]", "value": 1460, "unit": "ng/mL"},
      {"measurement": "Activity", "setting": "Mus musculus [20]", "value": 48, "unit": "%"},
      {"measurement": "Activity", "setting": "Mus musculus [21]", "value": 86, "unit": "%"},
      {"measurement": "Activity", "setting": "Mus musculus [22]", "value": 51, "unit": "%"}
    ]}
  ]
}
